Laboratory results published in ChEMBL document CHEMBL4052764, “Development of a prodrug of hydantoin based TACE inhibitor” (Bioorg Med Chem Lett, 2017).
Converted amounts (≈) assume the structure as drawn.

Assays:
Rattus norvegicus [1] = assay: AUC in rat assessed as (S)-5-(furo[3,2-b]pyridin-2-yl)-5-((6-methoxy-1-oxoisoindolin-2-yl)methyl)imidazolidine-2,4-dione level at 10 mg/kg, po by HPLC/MS analysis; format: ADME, organism-based; conditions: in vivo
[2] = target: Disintegrin and metalloproteinase domain-containing protein 17 (Homo sapiens, UniProt P78536); assay: Inhibition of TACE in human whole blood assessed as inhibition of LPS-stimulated TNFalpha production pretreated for 1 hr followed by LPS stimulation for 3.5 hrs by ELISA
Chain of Disintegrin and metalloproteinase domain-containing protein 17 (P78536 whole entry, the tested form may be a part): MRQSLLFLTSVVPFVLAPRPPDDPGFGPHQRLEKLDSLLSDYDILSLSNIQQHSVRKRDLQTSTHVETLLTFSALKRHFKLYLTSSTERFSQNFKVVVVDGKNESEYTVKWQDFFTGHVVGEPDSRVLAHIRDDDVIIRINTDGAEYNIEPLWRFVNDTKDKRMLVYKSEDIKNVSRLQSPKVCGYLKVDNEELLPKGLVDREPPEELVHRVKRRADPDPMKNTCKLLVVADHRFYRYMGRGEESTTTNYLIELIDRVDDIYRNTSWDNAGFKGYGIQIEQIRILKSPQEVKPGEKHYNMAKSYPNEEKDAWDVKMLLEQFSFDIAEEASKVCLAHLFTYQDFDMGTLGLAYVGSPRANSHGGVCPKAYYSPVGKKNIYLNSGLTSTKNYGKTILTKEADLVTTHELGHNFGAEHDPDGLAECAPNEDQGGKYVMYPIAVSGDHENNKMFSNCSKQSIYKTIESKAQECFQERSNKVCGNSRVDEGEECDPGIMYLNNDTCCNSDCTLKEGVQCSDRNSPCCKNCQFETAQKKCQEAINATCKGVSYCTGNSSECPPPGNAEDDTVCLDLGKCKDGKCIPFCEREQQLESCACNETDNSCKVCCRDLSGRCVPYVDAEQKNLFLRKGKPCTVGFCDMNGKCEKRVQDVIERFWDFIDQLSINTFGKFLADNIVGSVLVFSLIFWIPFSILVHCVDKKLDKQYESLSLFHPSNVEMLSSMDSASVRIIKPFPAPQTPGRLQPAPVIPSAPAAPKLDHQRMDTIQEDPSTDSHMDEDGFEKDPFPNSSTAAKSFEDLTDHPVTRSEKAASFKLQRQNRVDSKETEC

Rattus norvegicus [3] = assay: AUC in rat assessed as (S)-5-(5-(4-ethylpiperazin-1-yl)furo[3,2-b]pyridin-2-yl)-5-((7-fluoro-6-methoxy-1-oxoisoindolin-2-yl)methyl)imidazolidine-2,4-dione level at 10 mg/kg, po by LC/MS/MS analysis; format: ADME, organism-based; conditions: in vivo
Rattus norvegicus [4] = assay: Oral bioavailability in rat assessed as (S)-5-(5-(4-ethylpiperazin-1-yl)furo[3,2-b]pyridin-2-yl)-5-((7-fluoro-6-methoxy-1-oxoisoindolin-2-yl)methyl)imidazolidine-2,4-dione level at 10 mg/kg by LC/MS/MS analysis; format: ADME, organism-based; conditions: in vivo
Rattus norvegicus [5] = assay: AUC in rat assessed as (S)-5-(furo[3,2-b]pyridin-2-yl)-5-((6-methoxy-1-oxoisoindolin-2-yl)methyl)imidazolidine-2,4-dione level at 100 mg/kg, po administered as single dose by LC/MS/MS analysis; format: ADME, organism-based; conditions: in vivo
Rattus norvegicus [6] = assay: AUC in rat assessed as (S)-5-(furo[3,2-b]pyridin-2-yl)-5-((6-methoxy-1-oxoisoindolin-2-yl)methyl)imidazolidine-2,4-dione level at 300 mg/kg, po administered as single dose by LC/MS/MS analysis; format: ADME, organism-based; conditions: in vivo
Rattus norvegicus [7] = assay: AUC in rat assessed as (S)-5-(furo[3,2-b]pyridin-2-yl)-5-((6-methoxy-1-oxoisoindolin-2-yl)methyl)imidazolidine-2,4-dione level at 500 mg/kg, po administered as single dose by LC/MS/MS analysis; format: ADME, organism-based; conditions: in vivo
[8] = Permeability in human Caco2 cells at pH 7.4; format: ADME, cell-based; conditions: Caco-2, pH 7.4, read-out: permeability
[9] = Solubility of the compound at pH 6.5; format: physicochemical; conditions: buffer
Rattus norvegicus [10] = assay: Oral bioavailability in rat assessed as (S)-5-(furo[3,2-b]pyridin-2-yl)-5-((6-methoxy-1-oxoisoindolin-2-yl)methyl)imidazolidine-2,4-dione level at 10 mg/kg by LC/MS/MS analysis; format: ADME, organism-based; conditions: in vivo
Rhesus monkey = assay: Oral bioavailability in monkey assessed as (S)-5-(furo[3,2-b]pyridin-2-yl)-5-((6-methoxy-1-oxoisoindolin-2-yl)methyl)imidazolidine-2,4-dione level by LC/MS/MS analysis; format: ADME, organism-based, Macaca mulatta; conditions: in vivo
Canis familiaris = assay: Oral bioavailability in dog assessed as (S)-5-(furo[3,2-b]pyridin-2-yl)-5-((6-methoxy-1-oxoisoindolin-2-yl)methyl)imidazolidine-2,4-dione level by LC/MS/MS analysis; format: ADME, organism-based, Canis lupus familiaris; conditions: in vivo
[11] = Prodrug activation in human intestinal microsomes assessed as (S)-5-(furo[3,2-b]pyridin-2-yl)-5-((6-methoxy-1-oxoisoindolin-2-yl)methyl)imidazolidine-2,4-dione formation; design: species or system Intestine, Microsome
Liver [12] = assay: Prodrug activation in mouse liver microsomes assessed as (S)-5-(furo[3,2-b]pyridin-2-yl)-5-((6-methoxy-1-oxoisoindolin-2-yl)methyl)imidazolidine-2,4-dione formation; format: microsome
Liver [13] = assay: Prodrug activation in rat liver microsomes assessed as (S)-5-(furo[3,2-b]pyridin-2-yl)-5-((6-methoxy-1-oxoisoindolin-2-yl)methyl)imidazolidine-2,4-dione formation; format: microsome
Liver [14] = assay: Prodrug activation in dog liver microsomes assessed as (S)-5-(furo[3,2-b]pyridin-2-yl)-5-((6-methoxy-1-oxoisoindolin-2-yl)methyl)imidazolidine-2,4-dione formation; format: Canis lupus familiaris, microsome
[15] = Prodrug activation in monkey liver microsomes assessed as (S)-5-(furo[3,2-b]pyridin-2-yl)-5-((6-methoxy-1-oxoisoindolin-2-yl)methyl)imidazolidine-2,4-dione formation; format: Macaca mulatta, microsome; conditions: rhesus monkey
Liver [16] = assay: Prodrug activation in human liver microsomes assessed as (S)-5-(furo[3,2-b]pyridin-2-yl)-5-((6-methoxy-1-oxoisoindolin-2-yl)methyl)imidazolidine-2,4-dione formation; format: microsome
[17] = AUC in rat at 10 mg/kg, po by LC/MS/MS analysis; format: ADME, organism-based; conditions: in vivo
[18] = AUC in monkey at 10 mg/kg, po by LC/MS/MS analysis; format: ADME, organism-based, Macaca mulatta; conditions: rhesus monkey, in vivo
[19] = AUC in dog at 10 mg/kg, po by LC/MS/MS analysis; format: ADME, organism-based, Canis lupus familiaris; conditions: in vivo
[20] = Oral bioavailability in rat at 10 mg/kg by LC/MS/MS analysis; format: ADME, organism-based; conditions: in vivo
[21] = Oral bioavailability in monkey at 10 mg/kg by LC/MS/MS analysis; format: ADME, organism-based, Macaca mulatta; conditions: rhesus monkey, in vivo
[22] = Oral bioavailability in dog at 10 mg/kg by LC/MS/MS analysis; format: ADME, organism-based, Canis lupus familiaris; conditions: in vivo
[23] = AUC in rat at 100 mg/kg, po administered as single dose by LC/MS/MS analysis; format: ADME, organism-based; conditions: in vivo
[24] = AUC in rat at 300 mg/kg, po administered as single dose by LC/MS/MS analysis; format: ADME, organism-based; conditions: in vivo
[25] = AUC in rat at 500 mg/kg, po administered as single dose by LC/MS/MS analysis; format: ADME, organism-based; conditions: in vivo
[26] = AUC in rat at 10 mg/kg, po by HPLC/MS analysis; format: ADME, organism-based; conditions: in vivo

| Compound | AUC (Rattus norvegicus [1]) [µM·h] | IC50 [2] [nM] | other results |
| --- | --- | --- | --- |
| CCOP(=O)(OCC)OCN1C(=O)N[C@@](CN2Cc3ccc(OC)cc3C2=O)(c2cc3ncccc3o2)C1=O | 0.05 |  |  |
| COc1ccc2c(c1)C(=O)N(C[C@@]1(c3cc4ncccc4o3)NC(=O)N(C(C)C)C1=O)C2 | 0.4 | 7150 |  |
| COc1ccc2c(c1)C(=O)N(C[C@@]1(c3cc4nc(N5CCNCC5)ccc4o3)NC(=O)N(COC(=O)C(C)(C)C)C1=O)C2 |  | 156 |  |
| COc1ccc2c(c1F)C(=O)N(C[C@@]1(c3cc4nc(N)ccc4o3)NC(=O)N(COC(=O)C(C)(C)C)C1=O)C2 | 0.4 | 178 |  |
| COc1ccc2c(c1)C(=O)N(C[C@@]1(c3cc4nc(N5CCCNC5=O)ccc4o3)NC(=O)N(COC(=O)C(C)(C)C)C1=O)C2 | 0.2 | 282 |  |
| COc1ccc2c(c1)C(=O)N(C[C@]1(c3cc4ncccc4o3)C(=O)N(COC(=O)C(C)(C)C)C(=O)N1COC(=O)C(C)(C)C)C2 | 3.1 |  |  |
| CCN1CCN(c2ccc3oc([C@]4(CN5Cc6ccc(OC)cc6C5=O)NC(=O)N(COC(=O)C(C)(C)C)C4=O)cc3n2)CC1 | 0.7 | 176 |  |
| COc1ccc2c(c1F)C(=O)N(C[C@@]1(c3cc4nc(N5CCNC(=O)C5)ccc4o3)NC(=O)N(COC(=O)C(C)(C)C)C1=O)C2 | 0.6 | 104 |  |
| CCN1CCN(c2ccc3oc([C@]4(CN5Cc6ccc(OC)c(F)c6C5=O)NC(=O)N(COC(=O)C(C)(C)C)C4=O)cc3n2)CC1 | 20 | 61 | AUC (Rattus norvegicus [3]): 4.7 µM·h; F (Rattus norvegicus [4]): 7% |
| COc1ccc2c(c1F)C(=O)N(C[C@@]1(c3cc4nc(N5CCN(C)CC5)ccc4o3)NC(=O)N(COC(=O)C(C)(C)C)C1=O)C2 | 8.6 | 92 |  |
| COc1ccc2c(c1)C(=O)N(C[C@@]1(c3cc4ncccc4o3)NC(=O)N(COC(=O)c3ccccc3OC(C)=O)C1=O)C2 | 4.4 | 560 |  |
| COc1ccc2c(c1)C(=O)N(C[C@@]1(c3cc4ncccc4o3)NC(=O)N(COC(=O)C(C)(C)C)C1=O)C2 | 13.1 | 281 | AUC (Rattus norvegicus [5]): 210 µM·h; AUC (Rattus norvegicus [6]): 780 µM·h; AUC (Rattus norvegicus [7]): 1450 µM·h; Papp [8]: > 11.6 ×10⁻⁶ cm/s; solubility [9]: 175 µM (≈ 88.6 µg/mL); F (Rattus norvegicus [10]): 74%; F (Rhesus monkey): 92%; F (Canis familiaris): 72%; Drug metabolism [11]: Metabolite_Detected; Drug metabolism (Liver [12]): Metabolite_Detected; Drug metabolism (Liver [13]): Metabolite_Detected; Drug metabolism (Liver [14]): Metabolite_Detected; Drug metabolism [15]: Metabolite_Detected; Drug metabolism (Liver [16]): Metabolite_Detected |
| COc1ccc2c(c1)C(=O)N(C[C@@]1(c3cc4ncccc4o3)NC(=O)N(C)C1=O)C2 | 0.9 |  |  |
| COc1ccc2c(c1)C(=O)N(C[C@@]1(c3cc4ncccc4o3)NC(=O)NC1=O)C2.[Na+] |  |  | AUC [17]: 10 µM·h; AUC [18]: 5.2 µM·h; AUC [19]: 41 µM·h; bioavailability [20]: 35%; bioavailability [21]: 46%; bioavailability [22]: 82% |
| CCN1C(=O)N[C@@](CN2Cc3ccc(OC)cc3C2=O)(c2cc3ncccc3o2)C1=O | 0.9 |  |  |
| COc1ccc2c(c1)C(=O)N(C[C@@]1(c3cc4nc(N5CC[C@@H](O)C5)ccc4o3)NC(=O)N(COC(=O)C(C)(C)C)C1=O)C2 | 2.7 | 339 |  |
| COc1ccc2c(c1)C(=O)N(C[C@@]1(c3cc4ncccc4o3)NC(=O)NC1=O)C2 |  | 287 | AUC [23]: 120 µM·h; AUC [24]: 130 µM·h; AUC [25]: 240 µM·h; AUC [26]: 8.6 µM·h; Papp [8]: 1.2 ×10⁻⁶ cm/s; solubility [9]: 39 µM (≈ 15.3 µg/mL) |
| COc1ccc2c(c1F)C(=O)N(C[C@@]1(c3cc4nc(-c5cn[nH]c5)ccc4o3)NC(=O)N(COC(=O)C(C)(C)C)C1=O)C2 | 0.3 | 141 |  |
| COCCOCCOCCN1C(=O)N[C@@](CN2Cc3ccc(OC)cc3C2=O)(c2cc3ncccc3o2)C1=O | 0.02 |  |  |
